Entries after “also recorded” stand apart in the source; their conditions may differ. Like-named read-outs stand apart in the source and are kept apart here.
Experiments:
[1] = system: bladder; conditions: intravesical PGE2, rats; cited from earlier work
[2] = system: bladder; experiment: Single-fill cystometry with intravesical PGE2 (model of OAB) in anesthetized rats; assay type: in vivo, Female Wistar rats; conditions: intravesical 100 μM PGE2 vs saline control
Method: Female Wistar rats (n=18) weighing between 237 and 296 g were anesthetized with urethane (1.2 g/kg SC, supplemented as necessary). Body temperature was monitored using an esophageal temperature probe and maintained at 36-38° C. with a water blanket. Heart rate and arterial blood oxygen saturation levels were monitored using a pulse oximeter (Nonin Medical Inc., 2500 A VET).
For cystometrogram (CMG) measurements, the bladder was exposed via a midline abdominal incision. A PE-90 catheter, the tip of which was heated to create a collar, was inserted into the bladder lumen through a small incision in the apex of the bladder dome and secured with a 6-0 silk suture. The abdominal wall was closed in layers with 3-0 silk suture. […]
The bladder was filled continuously with physiological saline at room temperature (2-8 ml/hr) using an infusion pump with an open urethra for at least 45 minutes during post-surgical recovery. The bladder was subsequently emptied and cystometrograms (CMGs) recorded. […] Voided and residual volumes were recorded and used to calculate bladder capacity and voiding efficiency. […] For these trials, voiding efficiency was calculated as the first voided volume divided by the bladder capacity, and “reflex” voiding efficiency was calculated as the sum of the two voided volumes divided by the bladder capacity. […]

[3] = system: bladder; conditions: PGE2 given to healthy women; cited from earlier work

CCCCC[C@H](O)/C=C/[C@H]1[C@H](O)CC(=O)[C@@H]1C/C=C\CCCC(=O)O [PGE2, Prostaglandin E2]
Bladder capacity [1]: reduces bladder capacity | Voiding efficiency ([2]; n=9, p<0.001): increased voiding efficiency; also recorded: Voiding efficiency increased | Bladder capacity ([2]; urethane-anesthetized, n=9, p=0.02): consistently reduced bladder capacity; also recorded: decreased bladder capacity; also recorded: Bladder capacity decreased | Bladder capacity [3]: reduced bladder capacities | Urgency sensation [3]: a strong urgency sensation

Source: patent US20220184394A1, “STATE-DEPENDENT PUDENDAL NERVE STIMULATION FOR BLADDER CONTROL” (Duke University, priority 2017, published 2022)
